From PMC5400507, “The neuropeptide F/nitric oxide pathway is essential for shaping locomotor plasticity underlying locust phase transition” (eLife, 2017)

How the values were obtained:
Assay type in all cases: in vivo, Locusta migratoria
locusts = assay: Behavioral arena assay (Pgreg, TDM, TDMV, attraction index); settings: for attraction index: 2 hr after drug injection (L-NAME in G-phase, SNAP in S-phase) or 48 hr after NOS knockdown in G-phase; for behavioral phase state (Pgreg) / total distance moved (TDM) / total duration of movement (TDMV): n ≥ 23
Protocol: The concentrations of peptides and drugs that were used were determined according to described methods ([[…] and Yates, 2007]; [Van […] et al., 2013b]). […] Working solutions of different concentrations (0.05, 0.5 and 2.5 μg/μl) were injected into the hemolymph in the heads of fourth-instar locusts using a microinjector (2 μl/locust). The arena behavioral assay was conducted 1 hr, 2 hr, and 4 hr following injection. […] Working solution (100 μM) was microinjected into the heads of G-phase locusts (2 μl/locust). SNAP was dissolved with DMSO to prepare 100 mM stock solution. Working solution (200 μM) was microinjected into the heads of S-phase locusts (2 μl/locust). Locust behaviors were tested 2 hr after drug injection. The behavioral assay was performed in a rectangular Perspex arena (40 cm × 30 cm × 10 cm) containing three chambers. The left chamber (7.5 cm × 30 cm × 10 cm) contained 30 fourth-instar G-phase locusts as a stimulus group, and the right chamber was empty (7.5 cm × 30 cm × 10 cm). Locusts behaviors were recorded for 300 s by an EthoVision video tracking system and analyzed according to the binary logistic regression model constructed in our previous work ([Guo et al., 2011]). Details are as follow: […] AI = total duration in stimulus area - total duration in the opposite of stimulus area; this parameter represents the extent to which the tested animals are attracted by the stimulus group. TDMV (total duration of movement) and TDM (total distance moved) indicate the locomotor activity levels. Pgreg indicates the probability that a locust is considered gregarious. […] In the behavioral assay, 16-35 locusts were tested for each treatment according to the sample size reported in previous studies ([Ott et al., 2012]; [Ma et al., 2011]). […] Two hours later, SNAP (200 μM, 2 μl/locust) was injected into the heads of the experimental insects. Control insects were treated with an equal amount of saline. The injected locusts were then raised under the gregarious condition and subjected to behavioral analysis 2 hr after injection of SNAP. For S-phase locusts, […] or […] was microinjected into the brains of fourth-instar S-phase insects. […] The insects treated with dsGFP were used as a control.

NOS = assay: Total NOS activity in locust brains (NOS Kit); settings: n = 4 samples
Protocol: (§1) An enzyme-linked immunosorbent assay (ELISA) kit (R and D Systems, Inc.) was used to detect the relative cAMP level in locust brains. For NO content determination, Total Nitric Oxide Assay Kit (Beyotime) was used. Because NO molecules are unstable, the total NO levels in all test groups were assessed by detecting the content of nitrate and nitrite. The NOS Kit (Nanjing Jiancheng Bioengineering Institute) was used to detect the total NOS activity in locust brains. Protein concentrations were measured using the BicinChoninic Acid (BCA) Protein Assay Kit (Thermo). All of these three measurements were performed according to the manufacturer’s instructions. Each measurement was from at least four biological replicates (12–16 locusts/replicate). Data were normalized to the protein concentration.

NO = NO level in locust brains (Total Nitric Oxide Assay Kit); settings: n = 4 samples
Protocol: as §1

[1] = G-phase locusts, 2 hr after injection of L-NAME (100 μM, 2 μl/locust) or 48 hr after NOS knockdown
[2] = S-phase locusts pre-injected with dsNPFR or dsNPYR, 2 hr after L-NAME injection, n ≥ 16
[3] = G-phase locust brains, 2 hr after L-NAME injection or 48 hr after NOS knockdown
[4] = G-phase locusts pre-injected with NPF1a or NPF2 peptide, SNAP 200 μM, 2 μl/locust 2 hr later, tested 2 hr after SNAP, n ≥ 24
[5] = S-phase locusts, 2 hr after injection of SNAP (200 μM, 2 μl/locust)
[6] = S-phase locust brains, 2 hr after SNAP injection

| Compound | attraction index (locusts) | behavioral phase state (Pgreg) (locusts; [1]) | total distance moved (TDM) (locusts; [1]) | total duration of movement (TDMV) (locusts; [1]) | Pgreg increase induced by NPFR or NPYR knockdown (locusts; [2]) | total distance moved increase induced by NPFR or NPYR knockdown (locusts; [2]) | total duration of movement increase induced by NPFR or NPYR knockdown (locusts; [2]) | NOS activity (NOS; [3]) | NO levels (NO; [3]) | Pgreg, rescue (locusts; [4]) | total distance moved, rescue (locusts; [4]) | total duration of movement, rescue (locusts; [4]) | behavioral phase state (Pgreg) (locusts; [5]) | total distance moved (TDM) (locusts; [5]) | total duration of movement (TDMV) (locusts; [5]) | NOS activity (NOS; [6]) | NO levels (NO; [6]) |
| --- | --- | --- | --- | --- | --- | --- | --- | --- | --- | --- | --- | --- | --- | --- | --- | --- | --- |
| COC(=O)[C@@H](N)CCCNC(N)=N[N+](=O)[O-] [L-NAME, N-Nitro-L-arginine Methyl Ester] | did not change the attraction index | S-phase-like behavior | strongly suppressed | strongly suppressed | robustly abolished the increase | robustly abolished the increase | robustly abolished the increase | significantly reduced | significantly reduced |  |  |  |  |  |  |  |  |
| S-nitroso-N-acetyl-penicillamine [SNAP] | did not change the attraction index |  |  |  |  |  |  |  |  | robust recovery | robust recovery | robust recovery | pushed locust behavioral change from S-phase to G-phase state | enhanced | enhanced | without affecting NOS activity | increased |
